Values of other authors in patent US11642371B2, “Encapsulated antimicrobials and related methods of treatment” (ADVANTAGE SILVER DENTAL ARREST, LLC, priority 2018, dated 2023).

System: dentinal caries lesions
Conditions: lesions that had progressed into the dentin

Substance: Silver diamine fluoride [SDF]
- dentinal caries lesions found to be arrested after treatment: two-thirds
